The text below walks through data of PMC6668147, “Ancient role of vasopressin/oxytocin-type neuropeptides as regulators of feeding revealed in an echinoderm” (BMC Biology, 2019).

Test [1] concerns A. rubens VP/OT-type receptor. Description: Ca2+-induced luminescence in CHO-K1/G5A cells expressing the A. rubens VP/OT-type receptor and Gα16. The format is cell-based, Asterias rubens. To be noted: 10^−4 M; Wilcoxon signed-rank test vs basal media; n = 9. From the text:
A pBluescript SKII (+) vector containing the A. rubens VP/OT-type receptor cDNA as an insert (see above) was used as a template to amplify by PCR the open reading frame of the VP/OT-type receptor. To accomplish this, the oligonucleotides 5′-ggatccCACCATGACGCCCTC-3′ (upstream) and 5′-cccgggCTACATGTGAGCGGAAGCA-3′ (downstream) were used as primers and the PCR product was subcloned into the eukaryotic expression vector pcDNA 3.1+, which had been cut with the restriction enzymes BamHI and […]. For the upstream primer, a partial Kozak translation initiation sequence (CACC) was introduced before the start codon to optimise the initiation of translation.
For this assay, Chinese hamster ovary (CHO-K1) cells stably expressing the Ca^2+-sensitive bioluminescent GFP-aequorin fusion protein—G5A (CHO-K1/G5A cells) are co-transfected with plasmids containing a G-protein coupled receptor cDNA insert and plasmids containing an insert encoding the promiscuous G-protein Gα16. If a candidate ligand activates the expressed receptor, the promiscuous Gα16 protein triggers the activation of the IP3 signalling pathway, causing an increase in intracellular Ca^2+ and luminescence. […] Asterotocin at concentrations ranging from 10^−4 to 10^−12 M (n = 3) was pipetted into the wells of clear-bottomed 96-well plates (Sigma-Aldrich), then a FLUOstar Omega Plate Reader (BMG LABTECH) was used to inject a fixed amount of transfected CHO-K1 cells into each well sequentially, and luminescence was measured for a 35-s period after injection. Luminescence measurements were normalised to the maximum response obtained in each experiment (100%) and the response obtained with the vehicle media (0%). […] The half maximal effective concentration (EC50) was calculated from the dose-response curve in Prism 6.0c. […] A Wilcoxon signed-rank test was performed to compare luminescence of cells exposed to asterotocin, vasopressin, oxytocin and NGFFYamide (at 10^−4 M) with luminescence of cells in basal media (control).

Test [2] has as its system mammals. To be noted: cited from earlier work. From the text: Physiological processes and behaviour are controlled and regulated by a huge variety of neuronally secreted peptide signalling molecules (neuropeptides), which typically exert their effects on target cells by binding to cognate G-protein coupled receptors (GPCRs). Amongst the most intensely studied neuropeptides are vasopressin (VP) and oxytocin (OT). VP and OT are structurally related neuropeptides that were originally discovered based on their peripheral actions as pituitary hormones in mammals. VP is a cyclic and amidated nonapeptide (CYFQNCPRG-NH2; with a disulphide bridge betwee ...

In test [3] the test system is mammals. To be noted: cited from earlier work. The text has this:
Our discovery that asterotocin has such striking feeding-related effects in starfish provides a basis to examine if VP/OT-type neuropeptides are likewise involved in the regulation of feeding-associated processes in other taxa. Currently, little is known about the physiological roles of VP/OT-type neuropeptides in other echinoderms. […] This effect of echinotocin as a muscle contractant is consistent with the myoexcitatory eff ...
The source holds these as a separate data set.

The next test deals with octopus rectum. Particulars: in vitro; cited from earlier work. The text has this:
What about in the protostome branch of the Bilateria? […] In the cephalopod mollusc Octopus vulgaris, the VP/OT-type signalling system has been characterised in detail and comprises two VP/OT-type neuropeptides, octopressin (OP) and cephalotocin (CT), and three cognate receptors (OPR, CTR1, CTR2). Furthermore, OP is expressed in the regions of the octopus nervous system involved in the control o ...

In test [4] the test system is A. rubens. Particulars: cited from earlier work. From the text: Starfish feed by firstly prying apart the bivalve shells of prey (e.g. mussels) with their tube feet and then […] cardiac stomach out of their mouth and over the exposed digestible soft tissues. In order for the cardiac stomach to be everted, it must be in a relaxed state, and therefore, neuropeptides that cause cardiac stomach relaxation in vitro are potential mediators of eversion in vivo.

For test [5], the system named is cardiac stomach preparations from A. rubens. Briefly: Relaxation of in vitro cardiac stomach preparations. Also on record: species or system Asterias rubens. To be noted: 10^−7 M, KCl pre-contraction. As to the method:
To investigate if asterotocin affects muscle contractility in A. rubens, synthetic asterotocin (custom synthesised by PPR Ltd., Fareham, Hampshire, UK) was tested on three in vitro preparations: the cardiac stomach, apical muscle and tube feet. These three preparations have been used to examine the effects of other neuropeptides, and the methods employed have been described in detail previously. […] Therefore, the effects of asterotocin on cardiac stomach and apical muscle preparations were examined in more detail.
Cardiac stomach preparations from 16 starfish (8–13.5 cm in diameter) were incubated at 11 °C in an aerated organ bath containing artificial seawater with 3 × 10^−2 M added KCl. This induces sustained contraction of the cardiac stomach, which facilitates recording of the effects of neuropeptides that act as muscle relaxants. The contractile state of preparations was monitored using a high-grade isotonic transducer (model 60-3001; Harvard Apparatus, Cambridge, UK) connected to a Goerz SE 120 chart recorder (Recorderlab, Sutton, Surrey, UK) or using a high-grade isotonic transducer (MLT0015; ADInstruments Ltd., Oxford, UK) connected to data acquisition hardware (PowerLab 2/26, ADInstruments Ltd.) via a bridge amplifier (FE221 Bridge Amp, ADInstruments Ltd.). The output from the PowerLab was recorded using LabChart (v8.0.7) software installed on a laptop computer (Lenovo E540, Windows 7 Professional). To obtain representative images of the effects of asterotocin, traces were exported from LabChart into Adobe Photoshop and the function ‘Select and Mask’ was utilised to remove the background grid pattern.
The percentage relaxation at each concentration was calculated relative to the maximal relaxing effect produced by asterotocin in each preparation. […] For these experiments, the effect of 10^−7 M S2 was defined as 100%, and the effect of 10^−7 M asterotocin was calculated as a percentage of the effect of 10^−7 M S2. The relaxing effects of asterotocin and S2 on cardiac stomach preparations were analysed statistically using the Mann-Whitney U test.

The test system is the same in test [6]. Particulars: in vitro; cited from earlier work. As to the method:
Therefore, it was of interest here to investigate the effects of asterotocin on muscle preparations from A. rubens. […] The percentage relaxation at each concentration was calculated relative to the maximal relaxing effect produced by asterotocin in each preparation. To enable the assessment of the magnitude of the relaxing effect of asterotocin on cardiac stomach, experiments were performed to compare the effect asterotocin with the effect of the neuropeptide SALMFamide-2 (S2; […]-NH2), which has been shown previously to cause relax ...

The subject of test [7] is A. rubens. Briefly: Body posture / arm flexion after injection. The class given is in vivo, Asterias rubens. To be noted: S2, compared with asterotocin.
Test [8] deals with A. rubens. Briefly: In vivo cardiac stomach eversion, dose dependence. Also on record: species or system Asterias rubens. Particulars: 10 μl of 10^−3 M S2 into perivisceral coelom; n = 5. As to the method: During feeding in A. rubens, the cardiac stomach is everted out of the mouth over the digestible soft tissue of prey (e.g. mussels), and to accomplish this, the cardiac stomach must be relaxed. […] First, a pilot experiment was performed using 30 starfish (diameter 6.4–7.5 cm) that had been starved for 1 week to normalise their physiological status. Then animals were injected with different doses of asterotocin (10 μl of 10^−6–10^−3 M; n = 5 for each dose) or with 10 μl of water (negative control; n = 5) or with 10 μl of 10^−3 M S2 (positive control; n = 5). The animals were injected at a site located in the aboral body wall of an arm proximal to the junction with the central disc and adjacent to the madreporite. Care was taken to ensure that the tip of a Hamilton syringe used for injections was pushed through the body wall into the perivisceral coelom but not too deep so as to avoid injecting into the digestive organs. The doses of asterotocin injected were informed by our analysis of the volume of the perivisceral coelomic fluid in A. rubens. […] Following injection, the starfish were placed in a glass vessel containing seawater so that the mouth of the animal could be observed from below.

For test [9], the system named is A. rubens. Description: Righting behaviour following 4-week starvation. The class given is in vivo, Asterias rubens. As to the method:
To examine the specificity of the effects of asterotocin on starfish righting behaviour, an experiment was performed where the righting time of starfish (5.5–9.6 cm in diameter; starved for 4 weeks prior to testing) was measured before injection (n = 60; pooled from the three treatment groups) and after injection with 5 μl 10^−3 M asterotocin (n = 20) or 5 μl 10^−3 M S2 (n = 20) or 5 μl distilled water (n = 20). The time taken to right in seconds as well as the percentage difference between righting with and without injection was calculated. The percentage time difference between righting with and without injection in water-injected, asterotocin-injected and S2-injected animals was determined and plotted as a separated box and whiskers graph in Prism 6 (GraphPad 6). The effect of neuropeptides on righting behaviour was analysed statistically using the Mann-Whitney U test or a one-way ANOVA test with a post hoc Dunnett’s multiple comparisons test.

The test system of a further test is insects. Particulars: cited from earlier work. The text has this: Thus, the evolutionary origin of at least 30 neuropeptide families (including VP/OT-type) can be traced back to the bilaterian common ancestor of deuterostomes (vertebrates and invertebrate chordates, hemichordates, echinoderms) and protostomes (e.g. arthropods, nematodes, molluscs, annelids). Definitive evidence of the antiquity of VP/OT-type neuropeptides was first obtained with the purification and sequencing of VP/OT-type neuropeptides from insect and molluscan species [[8], ...

“Also recorded” adds a separate entry of the source. Like-named read-outs stand apart in the source and are kept apart here.

As to NGFFYamide, the “receptor activation at highest concentration tested, in words” value (“receptor activation” below) in test [1] is recorded as “did not cause significant receptor activation; also recorded: not significantly higher than the basal media control”.

“CYIQNCPLG-NH2 (disulfide) [oxytocin, human oxytocin (…-NH2)]”: in the test with mammals [2], the “uterine contraction and lactation, in words” value was “causes uterine contraction and lactation”. Besides, the “receptor activation” value in test [1] is given as “did not cause significant receptor activation; also recorded: not significantly higher than the basal media control”. Also, the “effect on feeding, in words” value with mammals [3] is given as “inhibits feeding”.

For octopressin, in the test with octopus rectum, the “effect on rectum, in words” value was “myoexcitatory effects on in vitro preparations of the octopus rectum”.

For “SGPYSFNSGLTF-NH2 [S2, SALMFamide neuropeptide S2 (…-NH2)]”, the “cardiac stomach eversion, in words (earlier work)” value was “triggers cardiac stomach eversion” in the test with A. rubens [4] (100 μl of 10^−3 M into perivisceral coelom) and “induces cardiac stomach eversion when injected in vivo” with A. rubens [4] (injected in vivo). Also, the “relaxing effect, S2 effect defined as 100%” value in [5] (replicate 1), in [5] (replicate 2), in test [5] (replicate 3), in test [5] (replicate 4) and in test [5] (replicate 5) was 100% throughout. Besides, in [6], the “effect on cardiac stomach preparations, in words” value is listed as “acts as a relaxant of cardiac stomach preparations; also recorded: cause relaxation of A. rubens cardiac stomach preparations in vitro”. Besides, the “posture change, in words” value in the test on A. rubens [7] is “does not induce the changes in posture”. Also, the “cardiac stomach eversion, in words” value with A. rubens [8] is reported as “cardiac stomach eversion was not observed; also recorded: stomach eversion was not observed in any of the animals”. In the test on A. rubens [9] (5 μl of 10^−3 M S2, n = 20), the “significance of righting time vs water-injected, in words” value is recorded as “not significantly different”. Also, in the test on A. rubens [9] (5 μl of 10^−3 M, mean ± SEM, n = 20, water 341 ± 59 s, non-injected 345 ± 35 s), the mean righting time amounted to 312 ± 40 s. Moreover, the “mean percentage righting time difference with vs without injection” value in the test with A. rubens [9] (5 μl of 10^−3 M, n = 20, water − 1.8 ± 13%) is 15 ± 12%.

For the substance inotocin, the “role in urine production, in words” value in the test with insects is reported as “VP-like role in regulating urine production”.

For the substance “CYFQNCPRG-NH2 (disulfide) [vasopressin, human vasopressin; cyclic amidated nonapeptide (…-NH2)]”, in the test on mammals [2], the “blood pressure, in words” value is recorded as “increases blood pressure” and the “diuresis, in words” value is “acts as an antidiuretic”. Further, in test [1], the “receptor activation” value is recorded as “did not cause significant receptor activation; also recorded: not significantly higher than the basal media control”.
